According to US20210087195A1, “NEW CRYSTAL FORM OF ACALBRUTINIB, PREPARATION METHOD THEREFOR AND USE THEREOF” (Crystal Pharmaceutical (Suzhou) Co., Ltd., priority 2018, published 2021):
≈ marks a conversion by molar mass, not a printed value. Entries after “also recorded” stand apart in the source; their conditions may differ. Like-named read-outs stand apart in the source and are kept apart here.

Tests used:
Format in all cases: physicochemical
[1] = Solubility in buffers of pH 7.0, 7.4 and 8.7 (HPLC); conditions: for solubility at 2 h: phosphate buffer, thermodynamic from solid, read-out: Solubility after equilibration for 2 hours
Procedure: A sufficient amount of Form K1 or Form I of WO2017002095A1 was suspended in buffers of pH 7.0, 7.4 and 8.7. After being stirred and equilibrated for 2 hours, the suspension was centrifuged to obtain supernatant. Concentration (mg/mL) of the supernatant was analyzed by HPLC.

[2] = Adhesiveness (amount sticking to the punch); conditions: φ8 mm round tooling, 10 kN, held 30 s, compression repeated twice
Procedure: Approximately 30 mg of Form K1 or Form I of WO2017002095A1 was weighed and then added into the dies of φ8 mm round tooling, compressed at 10 kN and held for 30 s. The amount of material sticking to the punch was weighed. The compression was repeated twice and the cumulative amount and average amount of solids sticking to the punch during the compression were recorded.

[3] = Compressibility (tensile strength of compressed powder); conditions: φ6 mm round tooling, compressed at 10 kN, T=2H/πDL
Procedure: Approximately 80 mg of Form K1 or Form I of WO2017002095A1 was added into the dies of φ6 mm round tooling, compressed at 10 kN manually, and then stored in a desiccator for 24 hours until complete elastic recovery. Radial crushing force (hardness, H) was tested with an intelligent tablet hardness tester. Diameter (D) and thickness (L) were tested with a caliper. Tensile strength of the powder with different hardness was calculated with the following formula: T=2H/πDL. Under a certain force, the greater the tensile strength, the better the compressibility.

[4] = Solubility in organic solvents (incremental solvent addition)
Procedure: A certain amount of Form K1 or Form I of WO2017002095A1 was added into a glass vial. Organic solvent was added into the glass vial in increments of 100 μL. Solid was quickly dispersed in solvent through oscillation or sonication, and the process was monitored to see whether the solid was completely dissolved. No more solvent was added when solids were completely dissolved, or a total volume of solvent reached 1.5 mL. According to mass of sample (m) and volume of solvent added, solubility (S) of different crystalline forms in organic solvent was calculated.

[5] = Physical stability of crystalline form in water (suspension, magnetic stirring or shaking, XRPD); conditions: for Physical stability in water (crystalline form change): magnetic stirring and shaking at room temperature and 5° C., up to 7 days
Procedure: The following experiments were conducted to compare physical stability of Form K1 of the present disclosure and Form I of WO2017002095A1 in water. Approximately 10 mg of Form K1 and Form I solids were added into 1.0 mL of pure water separately to form suspensions. The suspensions were dispersed by magnetic stirring and shaking at room temperature and 5° C. to evaluate the physical stability of Form K1 and Form I of WO2017002095A1 in water.

[6] = Slurry competition experiments between Form K1 and Form I in water; conditions: 5° C. and room temperature
Procedure: Approximately 30 mg of Form K1 and Form I of WO2017002095A1 were weighed and suspended into water at 5° C. and room temperature, to evaluate the stability of Form K1 and Form I of WO2017002095A1.

[7] = Stability of drug substance at long-term and accelerated conditions (XRPD); conditions: for Solid form after storage: one month
Procedure: Four samples, 10 mg each of Form K1 of the present disclosure was stored in HPLC glass vials. The HPLC glass vials were capped in sealed conditions, or covered with Parafilm with 3-5 pinholes in open conditions. After one month, solid forms were checked by XRPD.

[8] = Physical stability under manual grinding (XRPD); conditions: ground manually in a mortar for 5 minutes
Procedure: Form K1 was ground manually in a mortar for 5 minutes.

[9] = Form change during capsule formulation process (XRPD); conditions: before and after capsule preparation
Procedure: Form K1 capsules were prepared according to the formulation listed in Table 11 and the preparation process described in Table 12. XRPD was performed to test the form change before and after capsule preparation.

[10] = listed as Form I of WO2017002095A1

For `CC#CC(=O)N1CCC[C@H]1c1nc(-c2ccc(C(=O)Nc3ccccn3)cc2)c2c(N)nccn12` [Form I, (S)-4-(8-amino-3-(1-(but-2-ynoyl)pyrrolidin-2-yl)imidazo[1,5-a]pyrazin-1-yl)-N-(pyridin-2-yl)benzamide, reference compound], the “Solubility after equilibration for 2 hours” value (shortened to “Solubility … for 2 hours”) ([1]; pH = 7.0 phosphate aqueous solution) was 64 µg/mL, the “Solubility … for 2 hours” value ([1]; pH = 7.4 phosphate aqueous solution) was 55 µg/mL and the “Solubility … for 2 hours” value ([1]; pH = 8.7 phosphate aqueous solution) was 56 µg/mL. The “Average amount sticking to the punch” value [2, 10] was 45 µg, the “Cumulative amount sticking to the punch” value [2, 10] was 90 µg and the Tensile strength [3, 10] was “Unable to be compressed into a tablet”. The Solubility ([4]; 1,4-Dioxane) was “S < 13.1 mg/mL”, the Solubility ([4]; 2-methyltetrahydrofuran) was “S < 8.9 mg/mL” and the Solubility ([4]; Acetone) was “S < 6.5 mg/mL”. The Solubility ([4]; Acetonitrile) was “S < 7.8 mg/mL”, the Solubility ([4]; Ethanol) was “S < 6.4 mg/mL” and the Solubility ([4]; Ethyl acetate) was “S < 7.9 mg/mL”. The Solubility ([4]; Isopropanol) was “S < 6.5 mg/mL”, the Solubility ([4]; Methanol) was “S < 27.0 mg/mL” and the Solubility ([4]; Methyl ethyl ketone) was “S < 7.6 mg/mL”. The Solubility ([4]; Methyl isobutyl ketone) was “S < 7.7 mg/mL”, the Solubility ([4]; Tetrahydrofuran) was “S < 16.1 mg/mL” and the Solubility ([4]; n-Butanol) was “S < 8.7 mg/mL”. For the same compound, the Solubility ([4]; n-Propanol) was “S < 7.5 mg/mL”, the “Physical stability in water (crystalline form change)” value [5] was “crystallinity decrease and almost converts into amorphous” and the “Solid form changes in the suspension” value ([5]; water, magnetic stirring, room temperature, 4 hours) was “crystallinity decrease and almost converts into amorphous”. The “Form conversion in slurry competition” value [6] was “convert into Form K1”.
In the case of `CC#CC(=O)N1CCC[C@H]1c1nc(-c2ccc(C(=O)Nc3ccccn3)cc2)c2c(N)nccn12` [Form K1, (S)-4-(8-amino-3-(1-(but-2-ynoyl)pyrrolidin-2-yl)imidazo[1,5-a]pyrazin-1-yl)-N-(pyridin-2-yl)benzamide], the “Stability of drug substance (time kept stable)” value ([7]; 25° C./60% RH and 40° C./75% RH, sealed and open) is reported as “stable for at least one month”, the “Solid form after storage” value ([7]; 25° C./60% RH, open) is reported as “Form K1” and the “Solid form after storage” value ([7]; 25° C./60% RH, sealed) is reported as “Form K1”. The “Solid form after storage” value ([7]; 40° C./75% RH, open) was “Form K1”, the “Solid form after storage” value ([7]; 40° C./75% RH, sealed) was “Form K1” and the solubility at 2 h ([1]; pH 7, aqueous buffer, pH = 7.0 phosphate aqueous solution) was 79 µg/mL (≈ 170 µM). The solubility at 2 h ([1]; pH 7.4, aqueous buffer, pH = 7.4 phosphate aqueous solution) was 69 µg/mL (≈ 148 µM), the solubility at 2 h ([1]; pH 8.7, aqueous buffer, pH = 8.7 phosphate aqueous solution) was 66 µg/mL (≈ 142 µM) and the “Average amount sticking to the punch” value [2] was 30 µg. The “Cumulative amount sticking to the punch” value [2] was 60 µg, the Tensile strength [3] was 1.31 MPa and the Solubility ([4]; 1,4-Dioxane) was “S > 102.0 mg/mL”. For the same compound, the Solubility ([4]; 2-methyltetrahydrofuran, organic solvent or mixture, thermodynamic from solid, 2-methyltetrahydrofuran, read-out: Solubility) was > 17600 µg/mL, the Solubility ([4]; Acetone) was “S > 137.0 mg/mL” and the Solubility ([4]; Acetonitrile) was “S > 36.3 mg/mL”. The Solubility ([4]; Ethanol) was “S > 120.0 mg/mL”, the Solubility ([4]; Isopropanol) was “S > 48.0 mg/mL” and the Solubility ([4]; Methanol) was “S > 89.0 mg/mL”. For the same compound, the Solubility ([4]; Methyl ethyl ketone) was “S > 114.0 mg/mL”, the Solubility ([4]; Tetrahydrofuran) was “S > 142.0 mg/mL” and the Solubility ([4]; ethyl acetate, organic solvent or mixture, thermodynamic from solid, Ethyl acetate, read-out: Solubility) was > 13200 µg/mL. The Solubility ([4]; methyl isobutyl ketone, organic solvent or mixture, thermodynamic from solid, Methyl isobutyl ketone, read-out: Solubility) was > 10000 µg/mL, the Solubility ([4]; n-Butanol) was “S > 30.3 mg/mL” and the Solubility ([4]; n-Propanol) was “S > 58.0 mg/mL”. The “Physical stability in water (crystalline form change)” value [5] was “no crystalline form change; also recorded: doesn't change”, the “Physical stability under grinding (form change)” value [8] was “no obvious form change or crystallinity decrease” and the “Form change during capsule formulation process” value [9] was “doesn't change”.
